The IC50 is the concentration that inhibits the measured activity by half.

The values that follow come from patent publication US20080269266A1, “NOVEL COMPOUNDS 747” (ASTRAZENECA AB, priority 2007, published 2008).

Bounds are passed on as bounds.

One assay deals with T1, human IR (Homo sapiens, UniProt P06213).
T1 construct: expressed in transfected cells; host or cells: CHOT cells (CHO stably transfected with human IR)
The experiment in a line: Inhibition of Insulin Receptor Phosphorylation in CHOT cells. The format is cell-based. The note with it: for IC50: median, CHOT cells stimulated with 30 nM Insulin. The method, then: This immunofluorescence end point cell assay measures the ability of a test compound to reduce the measured levels of IR phosphorylation after insulin stimulation in CHOT cells. CHOT cells are Chinese Hamster Ovary cells (CHO) stable transfected with human IR. CHOT cells are routinely cultured in Hams F12 growth medium supplemented with 200 ug/ml Geneticin, 2.5 mM HEPES, 2 mM L-Glutamine (Invitrogen Code no. 25030-024) and 10% (v/v) foetal bovine serum (FBS) in a 5% CO2 air incubator at 37° C.
To undertake the assay, the CHOT cells are seeded at 5×10^3 cells/well in Hams F12 medium plus 2.5 mM HEPES, 1% foetal calf serum and 2 mM L-Glutamine in 96-well black Packard View plates (PerkinElmer 6005182) and incubated at 37° C. (+5% CO2) in a humidified incubator. The following day, the plates are dosed with 10 μl of 10× concentrated compound (diluted from 10 mM stock in DMSO and Hams F12 without serum) and the plates are returned to a humidified 37° C. (+5% CO2) incubator for 30 minutes. […]
Following the compound treatment, the CHOT cells are stimulated with a final concentration of 30 nM Insulin (Sigma #I-9278) for 10 minutes at 37° C. […] Additionally, in-house antibodies raised against phospho IR were also used at a suitable titre determined for each batch. […]
The Green Fluorescent phospho IR-associated signal in each well was measured using an Acumen Explorer HTS Reader (TTP Labtech Ltd., Cambridge). Phospho IR-associated fluorescence emission can be detected at 530 nm following excitation at 488 nm. The instrument is a laser-scanning fluorescence microplate cytometer, which samples the well at regular intervals and uses threshold algorithms to identify all fluorescent intensities above the solution background without the need to generate and analyse an image. These fluorescent objects can be quantified and provide a measure of the phospho IR levels in cells. Fluorescence dose response data obtained with each compound was exported into a suitable software package (such as Origin) to perform curve fitting analysis. […]

Assay [1] deals with T2, human cytochrome P450 (CYP) 2C9 (Homo sapiens, UniProt P11712).
T2 construct: made in house; host or cells: yeast cell lines (microsomal fractions)
T2 sequence (P11712 whole entry): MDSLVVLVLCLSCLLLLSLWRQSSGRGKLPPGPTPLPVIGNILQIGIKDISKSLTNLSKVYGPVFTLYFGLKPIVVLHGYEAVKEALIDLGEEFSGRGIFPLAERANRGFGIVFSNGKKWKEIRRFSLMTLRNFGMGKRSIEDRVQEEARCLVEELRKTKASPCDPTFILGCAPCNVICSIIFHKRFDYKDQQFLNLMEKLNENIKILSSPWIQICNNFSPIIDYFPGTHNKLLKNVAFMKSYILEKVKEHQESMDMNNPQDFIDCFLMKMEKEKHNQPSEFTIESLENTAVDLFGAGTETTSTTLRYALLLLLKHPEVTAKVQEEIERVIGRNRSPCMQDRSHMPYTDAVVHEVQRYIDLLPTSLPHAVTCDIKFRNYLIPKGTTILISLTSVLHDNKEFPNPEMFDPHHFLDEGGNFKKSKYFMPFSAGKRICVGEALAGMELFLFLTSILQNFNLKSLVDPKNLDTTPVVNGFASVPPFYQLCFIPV
The experiment in a line: Cytochrome P450 Inhibition Assay 2C9. As to conditions: test compound final concentrations 0.1-10 μM; substrate MFC. Format: in vitro ADME. As for the experimental part:
(§1) The inhibitory potential (IC50) of test compounds against 5 human cytochrome P450 (CYP) isoforms (1A2, 2C9, 2C19, 3A4 and 2D6) was assessed using an automated fluorescent end point in vitro assay modified from Crespi (Crespi and Stresser, 2000). Microsomal subcellular fractions prepared from Yeast cell lines expressing each human CYP isoform were used as an enzyme source in this assay. The activity of the 5 major human CYPs was determined from the biotransformation of a number of coumarin substrates to fluorescent metabolites, in the presence of NADPH. […] Stock solutions of each CYP, with its respective substrate, were prepared in phosphate buffer pH7.4 (see Table 1) and 178 μl was added to the well of a black solid, flat bottom, 300 μl 96 well is microtitre plate (Corning Costar). […] After pre-incubating at 37° C. for 5 min the reactions were started with addition of NADPH (20 μl, concentration shown in Table 1). […] The appropriate solvent controls and substrate blanks were included in each experiment to assess control activity and identify any inherent fluorescence due to the test compounds. […] The plates were read on a fluorimeter (Spectrafluor Plus) at the appropriate excitation and emission wavelengths (listed in Table 2) and the percent activity, corrected for control, was plotted against the test compound concentration.

For assay [2], the target named is T3, human cytochrome P450 (CYP) 2C19 (Homo sapiens, UniProt P33261).
T3 construct: made in house; host or cells: yeast cell lines (microsomal fractions)
T3 sequence (P33261 whole entry): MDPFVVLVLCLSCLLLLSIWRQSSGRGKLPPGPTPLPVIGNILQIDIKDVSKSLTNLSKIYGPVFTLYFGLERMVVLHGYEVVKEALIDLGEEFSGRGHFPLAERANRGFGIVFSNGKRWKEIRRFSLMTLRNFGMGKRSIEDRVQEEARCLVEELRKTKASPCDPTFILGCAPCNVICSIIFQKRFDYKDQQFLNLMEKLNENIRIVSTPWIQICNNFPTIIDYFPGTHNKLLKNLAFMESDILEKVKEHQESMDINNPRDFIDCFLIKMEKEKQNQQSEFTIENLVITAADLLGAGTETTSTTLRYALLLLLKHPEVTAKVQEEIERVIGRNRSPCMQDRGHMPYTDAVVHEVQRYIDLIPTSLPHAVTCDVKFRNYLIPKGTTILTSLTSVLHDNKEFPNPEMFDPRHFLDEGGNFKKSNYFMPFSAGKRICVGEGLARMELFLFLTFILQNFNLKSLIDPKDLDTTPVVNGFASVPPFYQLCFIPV
Description: Cytochrome P450 Inhibition Assay 2C19. Format: in vitro ADME. As to conditions: test compound final concentrations 0.1-10 μM; substrate MFC; read-out: Ic50 2C19. The method, then:
The inhibitory potential (IC50) of test compounds against 5 human cytochrome P450 (CYP) isoforms (1A2, 2C9, 2C19, 3A4 and 2D6) was assessed using an automated fluorescent end point in vitro assay modified from Crespi (Crespi and Stresser, 2000). Microsomal subcellular fractions prepared from Yeast cell lines expressing each human CYP isoform were used as an enzyme source in this assay. The activity of the 5 major human CYPs was determined from the biotransformation of a number of coumarin substrates to fluorescent metabolites, in the presence of NADPH. […] Stock solutions of each CYP, with its respective substrate, were prepared in phosphate buffer pH7.4 (see Table 1) and 178 μl was added to the well of a black solid, flat bottom, 300 μl 96 well is microtitre plate (Corning Costar). […] After pre-incubating at 37° C. for 5 min the reactions were started with addition of NADPH (20 μl, concentration shown in Table 1). The final solvent content in each incubation was <=2% (1% from the test compound and a maximum of 1% from the substrate). The appropriate solvent controls and substrate blanks were included in each experiment to assess control activity and identify any inherent fluorescence due to the test compounds. In addition, known inhibitors of each CYP were included as positive controls (see Table 3 for inhibitor concentrations and expected IC50 ranges). The reactions were stopped at defined timepoints (see Table 1) by quenching with 100 μl of solvent (acetonitrile:0.5M Tris buffer 80:20 v/v). The plates were read on a fluorimeter (Spectrafluor Plus) at the appropriate excitation and emission wavelengths (listed in Table 2) and the percent activity, corrected for control, was plotted against the test compound concentration.

Assay [3] concerns the target T4, human cytochrome P450 (CYP) 2D6 (Homo sapiens, UniProt P10635).
T4 construct: made in house; host or cells: yeast cell lines (microsomal fractions)
Description: Cytochrome P450 Inhibition Assay 2D6. As to conditions: test compound final concentrations 0.1-10 μM; substrate MAMC. Format: in vitro ADME. As for the experimental part: as §1

Assay [4] deals with T5, human cytochrome P450 (CYP) 3A4 (Homo sapiens, UniProt P08684).
T5 construct: made in house; host or cells: yeast cell lines (microsomal fractions)
T5 sequence (P08684 whole entry): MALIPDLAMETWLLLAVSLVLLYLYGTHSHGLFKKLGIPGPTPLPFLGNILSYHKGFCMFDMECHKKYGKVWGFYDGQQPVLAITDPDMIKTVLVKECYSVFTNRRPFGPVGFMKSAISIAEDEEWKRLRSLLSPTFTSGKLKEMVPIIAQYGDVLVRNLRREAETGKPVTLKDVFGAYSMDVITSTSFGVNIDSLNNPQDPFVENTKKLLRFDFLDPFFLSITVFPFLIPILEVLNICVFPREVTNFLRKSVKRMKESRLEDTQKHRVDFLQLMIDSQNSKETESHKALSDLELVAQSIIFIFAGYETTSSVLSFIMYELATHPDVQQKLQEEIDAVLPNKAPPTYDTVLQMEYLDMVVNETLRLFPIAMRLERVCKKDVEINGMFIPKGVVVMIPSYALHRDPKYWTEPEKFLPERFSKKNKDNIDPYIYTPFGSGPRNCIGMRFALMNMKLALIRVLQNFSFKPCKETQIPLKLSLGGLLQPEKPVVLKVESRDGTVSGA
The experiment in a line: Cytochrome P450 Inhibition Assay 3A4. The format is in vitro ADME. As to conditions: test compound final concentrations 0.1-10 μM; substrate BFC. As for the experimental part:
as §1

The target of assay [5] is hERG (human ether-a-go-go-related gene) ion channel (Homo sapiens, UniProt Q12809). The experiment in a line: hERG. The format is cell-based. The text has this:
Conclusion: Compounds of the present invention (Example 1) while showing good IGF inhibition, also show decreased Cytochrome P450 inhibition when compared to a known IGF inhibitor (Comparative Example A). Low inhibition of Cytochrome P450 is desirable to ameliorate potential drug: drug interactions. hERG hERG can be tested according to the methods described in Journal of Pharmacolgical and Toxicological Methods 2006, 54, 189-199.
For orientation: The hERG channel carries a current that helps repolarise heart muscle cells.

T1 sequence (P06213 28-1382): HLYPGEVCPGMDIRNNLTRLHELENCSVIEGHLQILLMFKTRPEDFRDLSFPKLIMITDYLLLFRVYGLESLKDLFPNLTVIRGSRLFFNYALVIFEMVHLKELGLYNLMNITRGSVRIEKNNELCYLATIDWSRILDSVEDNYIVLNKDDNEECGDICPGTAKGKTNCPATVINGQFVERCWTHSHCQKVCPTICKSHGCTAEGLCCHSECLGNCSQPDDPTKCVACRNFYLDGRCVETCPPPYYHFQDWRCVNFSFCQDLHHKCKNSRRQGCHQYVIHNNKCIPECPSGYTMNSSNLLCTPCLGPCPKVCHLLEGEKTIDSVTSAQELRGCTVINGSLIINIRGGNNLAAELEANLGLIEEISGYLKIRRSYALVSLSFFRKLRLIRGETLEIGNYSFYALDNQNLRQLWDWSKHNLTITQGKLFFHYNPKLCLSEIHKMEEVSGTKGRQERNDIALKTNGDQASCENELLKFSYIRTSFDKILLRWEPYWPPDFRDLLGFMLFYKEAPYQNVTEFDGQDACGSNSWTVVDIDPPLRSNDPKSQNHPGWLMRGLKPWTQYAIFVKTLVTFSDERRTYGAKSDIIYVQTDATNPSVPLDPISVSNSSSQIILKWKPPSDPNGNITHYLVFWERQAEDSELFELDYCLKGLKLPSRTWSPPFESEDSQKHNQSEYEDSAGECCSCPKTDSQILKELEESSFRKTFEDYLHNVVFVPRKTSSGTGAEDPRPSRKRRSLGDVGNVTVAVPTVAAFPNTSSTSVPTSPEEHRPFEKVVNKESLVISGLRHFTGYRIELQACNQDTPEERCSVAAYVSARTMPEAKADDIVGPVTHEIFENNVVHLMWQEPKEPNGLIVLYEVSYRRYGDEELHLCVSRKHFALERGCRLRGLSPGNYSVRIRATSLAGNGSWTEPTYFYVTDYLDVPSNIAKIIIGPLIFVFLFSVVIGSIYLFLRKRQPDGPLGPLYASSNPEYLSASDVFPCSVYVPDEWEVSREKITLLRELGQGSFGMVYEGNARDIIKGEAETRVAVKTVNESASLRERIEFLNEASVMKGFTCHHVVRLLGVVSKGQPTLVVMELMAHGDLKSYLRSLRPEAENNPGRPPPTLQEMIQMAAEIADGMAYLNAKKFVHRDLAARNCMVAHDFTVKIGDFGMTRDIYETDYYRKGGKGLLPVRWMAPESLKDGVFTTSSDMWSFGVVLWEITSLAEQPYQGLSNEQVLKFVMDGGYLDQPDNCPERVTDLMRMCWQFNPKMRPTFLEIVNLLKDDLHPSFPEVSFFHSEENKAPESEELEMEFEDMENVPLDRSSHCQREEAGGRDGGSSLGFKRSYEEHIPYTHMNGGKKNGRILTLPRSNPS
Sequence of hERG (human ether-a-go-go-related gene) ion channel (Q12809 whole entry): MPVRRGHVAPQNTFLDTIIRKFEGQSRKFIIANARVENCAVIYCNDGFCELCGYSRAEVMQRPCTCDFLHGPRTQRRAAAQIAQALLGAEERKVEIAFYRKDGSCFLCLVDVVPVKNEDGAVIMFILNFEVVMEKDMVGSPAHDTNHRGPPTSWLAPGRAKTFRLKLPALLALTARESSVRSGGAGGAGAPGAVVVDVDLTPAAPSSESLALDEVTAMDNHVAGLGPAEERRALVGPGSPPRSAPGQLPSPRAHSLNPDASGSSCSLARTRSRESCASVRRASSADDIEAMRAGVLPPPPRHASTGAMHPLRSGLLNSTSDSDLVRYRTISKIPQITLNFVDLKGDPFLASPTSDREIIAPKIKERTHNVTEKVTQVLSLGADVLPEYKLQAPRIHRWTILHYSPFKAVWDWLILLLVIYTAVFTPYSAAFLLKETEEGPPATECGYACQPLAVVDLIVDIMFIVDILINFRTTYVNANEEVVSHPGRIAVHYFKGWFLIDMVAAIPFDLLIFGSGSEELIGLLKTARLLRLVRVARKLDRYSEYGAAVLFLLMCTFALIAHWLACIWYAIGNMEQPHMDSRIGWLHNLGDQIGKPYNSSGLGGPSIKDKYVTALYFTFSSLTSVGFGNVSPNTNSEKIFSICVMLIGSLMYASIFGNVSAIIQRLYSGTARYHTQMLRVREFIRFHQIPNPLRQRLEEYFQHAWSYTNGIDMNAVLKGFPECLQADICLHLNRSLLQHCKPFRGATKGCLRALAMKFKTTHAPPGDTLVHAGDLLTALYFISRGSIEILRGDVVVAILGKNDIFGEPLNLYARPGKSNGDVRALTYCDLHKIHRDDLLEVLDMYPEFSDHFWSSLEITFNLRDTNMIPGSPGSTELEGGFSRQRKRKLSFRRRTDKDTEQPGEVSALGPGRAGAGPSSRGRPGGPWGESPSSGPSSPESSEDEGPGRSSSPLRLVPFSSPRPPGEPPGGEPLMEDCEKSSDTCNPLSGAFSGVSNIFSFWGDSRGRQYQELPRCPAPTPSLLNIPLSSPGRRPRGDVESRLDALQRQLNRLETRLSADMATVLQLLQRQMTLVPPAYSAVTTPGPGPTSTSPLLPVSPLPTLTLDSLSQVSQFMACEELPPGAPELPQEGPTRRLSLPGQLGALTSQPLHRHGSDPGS
T4 sequence (P10635 whole entry): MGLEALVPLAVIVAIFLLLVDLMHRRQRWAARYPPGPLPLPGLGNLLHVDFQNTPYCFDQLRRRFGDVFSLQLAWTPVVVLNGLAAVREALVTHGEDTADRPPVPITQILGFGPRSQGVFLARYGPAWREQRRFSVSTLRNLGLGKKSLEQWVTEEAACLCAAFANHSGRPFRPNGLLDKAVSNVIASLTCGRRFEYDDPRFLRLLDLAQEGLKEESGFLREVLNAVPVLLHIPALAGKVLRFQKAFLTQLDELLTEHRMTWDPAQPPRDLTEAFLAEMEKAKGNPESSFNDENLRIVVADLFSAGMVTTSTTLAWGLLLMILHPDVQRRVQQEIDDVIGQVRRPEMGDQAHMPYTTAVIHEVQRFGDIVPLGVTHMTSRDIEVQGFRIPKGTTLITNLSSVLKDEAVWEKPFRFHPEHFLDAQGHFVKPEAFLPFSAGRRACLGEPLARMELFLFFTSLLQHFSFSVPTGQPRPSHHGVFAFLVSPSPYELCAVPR

`CCc1cc(Nc2cc(OC)nc(N3CCC[C@H]3c3cc(-c4ncccn4)no3)n2)n[nH]1` [Comparative Example A, (S)-6-Methoxy-2-{2-[3-(pyrimid-2-yl)isoxazol-5-yl]pyrrolidin-1-yl}-4-(5-ethyl-1H-pyrazol-3-ylamino)pyrimidine]: the IC50 against human IR was 0.00325 µM; in assay [1] it was above 10 µM; in assay [2] it was above 10 µM; in assay [3], above 10 µM; in assay [4], above 10 µM; in assay [5], 25.2 µM.

For the compound `COc1cc(Nc2cc(C)n[nH]2)nc(N2CCC[C@H]2c2cc(-c3ncccn3)no2)n1` [Example 1, (S)-6-Methoxy-2-{2-[3-(pyrimid-2-yl)isoxazol-5-yl]pyrrolidin-1-yl}-4-(5-methyl-1H-pyrazol-3-ylamino)pyrimidine], the “difference in the Inhibition of Insulin Receptor Phosphorylation assay” value on human IR (Example 1 compared with Comparative Example A) is on record as “ten-fold”. Besides, the IC50 is 0.035 µM against human IR; above 10 µM in assay [1]; above 10 µM in assay [2]; above 10 µM in assay [3]; above 10 µM in assay [4]; above 32 µM in assay [5].
